Reference: patent US20160375439A1, “Apparatus and Methods for Single-Particle Isolation and Single-Particle Measurement” (priority 2015, published 2016)
“And” between values parts separate entries of the source, which are not always exact repeats. Identical values can stand only once. “Also recorded” adds a separate entry of the source. Like-named read-outs stand apart in the source and are kept apart here.

Experiments:
22Rv1 cells [1] = experiment: On-chip drug accumulation measurement (fluorescence) of anti-cancer drug alone in a single 22Rv1 cell; format: cell-based, human; conditions: for corrected signal of OG-PTX / corrected signal of DNR (Fi): single 22Rv1 cell; for corrected signal of OG-PTX: FIG. 8b; for corrected signal of DNR (Fi): FIG. 8a
Excerpt: After the cell was kept stationary, the medium was introduced into Reservoir D to induce a liquid flow to make sure the cell was stationary before running the drug accumulation experiment. An optical detection system was employed for simultaneous fluorescence measurement and bright-field imaging.^47,58
(§1) The procedure for drug accumulation measurement has previously been reported.^45-47 Briefly, the anti-cancer drug (i.e., DNR or OG-PTX) was introduced via Reservoir D and drug accumulation of the anti-cancer drug was measured in the single cell. […] DNR was first used for drug accumulation measurement as it had inherent fluorescence (λex=470 nm; λem=585 nm). Thereafter, paclitaxel that was fluorescently labelled by Oregon Green was examined (λex=492 nm; λem=524 nm), since paclitaxel was the commonly-used anti-cancer drug for prostate cancer treatment.
Drug accumulation was conducted in Chamber 2. In the first step, accumulation of the anti-cancer drug (i.e., DNR or OG-PTX) in the MDR single cell was measured in the absence of MDR inhibitor (FIG. 7a). The 22Rv1 cells naturally express the ABCG2 transporter, which actively transports drug molecules out of the cell.^50 As DNR is a well-known ABCG2 substrate,^51 the initial accumulation of DNR without the influence of any MDR inhibitor was low. […] When the cell was inside the window, the total fluorescent intensity (Ft) was measured; whereas the background (Fb) was measured when the cell was outside the window.^58, 59 Subtraction of the background (Fb) from the total fluorescent intensity (Ft) gave a corrected signal (Fi) representing the drug concentration inside the single prostate cancer cell.^45, 59
The experiment was continued using DNR at different concentrations (3.5, 7, 14, 35, 70, 350 μM) in order to determine the reasonable initial signal of drug accumulation in the cell. […] The signal obtained from DNR at 35 μM provided the optimal initial value. Similarly, other experiments were conducted on a single 22Rv1 cell by treating the cell with OG-PTX at different concentrations (0.3, 1.5, 3, 6, 30 μM). […] Therefore, the optimal fluorescence signal was obtained after treating the single cell with 3 μM of OG-PTX. After the optimization experiment for drug concentration, subsequent experiments were carried out with 35 μM of DNR or 3 μM of OG-PTX. […] A similar experiment was conducted on another single 22Rv1 cell by adding 3 μM of OG-PTX, indicating saturation in the fluorescent intensity (FIG. 8d).

22Rv1 cells [2] = format: cell-based, human; conditions: for a2 (pre-exponential factor, normalized fluorescence plateau) / b2: same single cell
Excerpt: We previously reported that a mono-exponential drug uptake model could be applied to fit the experimental data in order to compare drug accumulation kinetics in MDR cells.^45 The following equation was used to describe the time-dependent change of single-cell DNR accumulation:
where x is time; y is the normalized fluorescence signal obtained by dividing the intracellular concentrations by the extracellular DNR concentrations; a is the y-axis value that will reach when the time x is sufficiently large (this value is called pre-exponential factor that is related to the cell permeability coefficient p of drug uptake and the pump rate k for drug efflux); b, which is the half time when y reaches 50% of a, is given by
The curve fitting analysis was performed on the normalized fluorescence using the SAS software. […] Because of the initially large drug concentration gradient across the cell membrane, the initial cellular accumulation rate of drugs is very fast,^65 and this fast rate is shown as a short half time of ˜106 s in FIG. 13a. When the concentration gradient became smaller, the drug uptake rate became slower; ultimately, the signal reached a plateau as the drug uptake rate was close to the drug efflux rate. In the presence of FTC, drug accumulation increased (FIG. 13b). This significant drug enhancement is believed to be caused by the action of FTC on the ABCG2 drug efflux pump.
In a similar manner, an experiment was conducted by treating a 22Rv1 cell by 3 μM of OG-PTX, followed by OG-PTX-loaded FTC40 of μM, as shown in FIGS. 13c and 13d.

22Rv1 cells [3] = format: cell-based, human
Procedure: as §1
As shown in FIG. 11a (solid line), the fluorescence signal of the DNR was 630±77. After adding different concentrations of FTC, the signals were enhanced. Similar experiments were performed by adding different concentrations of OG-PTX (FIG. 11a: dashed line). Therefore, the optimal fluorescence signals were obtained after treating the single cells with both anti-cancer drugs in the presence of 40 μM of FTC.
Obvious enhancement in fluorescent intensity (at 585 nm) was observed (i.e., 2.8±0.3, 4.4±0.5, 4.9±0.5 fold-increase (p<0.0001). After washing the cell, anti-P-gp was applied. The fluorescence signal (524 nm) increased from 265±70 to 615±72 cps, confirming that the PCa cell was cancerous.
One of the key requirements for the effectiveness of chemotherapy is the sufficient delivery of chemotherapeutic drug into the cancer cell.^66-69 As mentioned, drug resistance due to MDR activity is due to the function of ABC transporters that reduce intracellular drug accumulation. […] Similar results were obtained after applying OG-PTX in the presence of same MDR inhibitors (FIG. 15a: black solid line & FIG. 15b: gray solid line) (3.0±0.2, 3.1±0.2, 3.1±0.2, and 2.9±0.2, 2.9±0.2, 3.0±0.2 of fold-increase, respectively). […] On the other hand, after accumulation of DNR in the presence of MDR inhibitors, DNR was more effectively retained in MDR cells following removal of MDR inhibitors, particularly FTC from single MDR-treated cell (FIG. 14b: black dashed line).

22Rv1 cells [4] = experiment: Effect of MDR inhibitors on DNR accumulation in single 22Rv1 cell; format: cell-based, human
22Rv1 cells [5] = conditions: 22Rv1 cells treated by FTC (25 μM); cited from earlier work
WBC [6] = experiment: Trypan blue treatment of WBC; format: cell-based, mouse; conditions: after high DNR accumulation, FIG. 12 f3
22Rv1 cells [7] = experiment: Trypan blue treatment of single 22Rv1 cell (cell viability); format: cell-based, human
Excerpt: This dye was used to check if the cell membrane was compromised after the exposure to the various conditions, as a measure of cell viability.

WBC [8] = experiment: Single-cell DNR accumulation in white blood cell (WBC); format: cell-based, mouse; conditions: 35 μM DNR alone, FIG. 12c
Procedure: as §1
On the other hand, in a similar experiment conducted on the WBC (FIG. 12c), the cell was not stained by the anti-Pgp antibody, indicating it is not a PCa cell.

leukemia cells = conditions: simultaneous administration of verapamil & CsA and MK-571; cited from earlier work
[9] = Step 2: 3 μM OG-PTX + 40 μM FTC

## Oregon Green® 488-conjugated paclitaxel [OG-PTX]
22Rv1 cells [1]; 0.3 μM OG-PTX
  corrected signal of OG-PTX: 60±48 cps
22Rv1 cells [1]; 1.5 μM OG-PTX
  corrected signal of OG-PTX: 100±52 cps
22Rv1 cells [1]; 3 μM OG-PTX alone for 4000 s (negative control), three successive values, FIG. 15a dotted line
  fold-increase in OG-PTX accumulation: 1.1±0.1 fold and 1.2±0.1 fold
22Rv1 cells [1]; 3 μM OG-PTX
  corrected signal of OG-PTX: 510±88 cps and 500±55 cps
22Rv1 cells [1]; 6 μM OG-PTX
  corrected signal of OG-PTX: 1300±56 cps
22Rv1 cells [1]; 30 μM OG-PTX
  corrected signal of OG-PTX: 2900±72 cps
22Rv1 cells [2]; 3 μM OG-PTX only, FIG. 13c
  half-time to reach plateau: 98 s
22Rv1 cells [2]; Step 1: 3 μM OG-PTX only
  a1 (pre-exponential factor, normalized fluorescence plateau): 1.0±0.1
  b1: 0.007 ± 0.006 s⁻¹
22Rv1 cells [3]; single 22Rv1 cell isolated from WBCs, successive MDR inhibitor treatments not given, FIG. 12b
  fold-increase in fluorescent intensity (at 585 nm), OG-PTX accumulation: 2.8±0.3 fold and 4.4±0.5 fold and 4.9±0.5 fold

## COc1ccc2c3c([nH]c2c1)[C@H](C=C(C)C)N1C(=O)[C@@H]2CCCN2C(=O)[C@@H]1C3 [FTC, fumitremorgin C]
22Rv1 cells [2]; 3 μM OG-PTX + 40 μM FTC, FIG. 13d
  half-time to reach plateau: 24 s
22Rv1 cells [2]; 35 μM DNR + 40 μM FTC, FIG. 13b
  half time to reach the plateau: 346 s
22Rv1 cells [2]; [9]
  a2 (pre-exponential factor, normalized fluorescence plateau): 2.4±0.4
  b2: 0.003 ± 0.008 s⁻¹
22Rv1 cells [2]; Step 2: 35 μM DNR + 40 μM FTC
  a2 (pre-exponential factor, normalized fluorescence plateau): 3.4±0.2
  b2: 0.004 ± 0.002 s⁻¹
22Rv1 cells [4]; 35 μM DNR + 40 μM FTC, FIG. 13
  fold-increase for DNR accumulation, based on curve fitting: 3.4±0.2 fold
22Rv1 cells [4]; 35 μM DNR + 40 μM FTC, after 1000 s of adding inhibitor, three successive values, FIG. 14a solid line
  fold-increase in DNR accumulation: ~3.7±0.2 fold and ~3.8±0.2 fold
22Rv1 cells [4]; 35 μM DNR, FTC removed after 2000 s, three successive values, FIG. 14a dashed line
  fold-increase in DNR accumulation after removing inhibitor: 3.8±0.2 fold and 3.2±0.2 fold and 2.7±0.2 fold
22Rv1 cells [4]; 35 μM DNR, after adding 40 μM FTC, FIG. 9a top curve
  fold-increase in DNR accumulation signal: 3.5±0.3 fold
22Rv1 cells [4]; FTC, followed by CsA, then FTC+CsA on the same cell, FIG. 14c
  fold-increase in DNR accumulation, average of 6 individual cell experiments: 3.7±0.4 fold
22Rv1 cells [4]; single 22Rv1 cell, DNR and OG-PTX accumulation, FIG. 11
  MDR inhibitor concentration giving the optimal fluorescence signal: 40 µM
22Rv1 cells [3]; 3 μM OG-PTX + 40 μM FTC, FIG. 13
  fold-increase for OG-PTX accumulation, based on curve fitting: 2.4±0.4 fold
22Rv1 cells [3]; 3 μM OG-PTX + 40 μM FTC, three successive values, FIG. 15a solid line
  fold-increase in OG-PTX accumulation: 3.0±0.2 fold and 3.1±0.2 fold
22Rv1 cells [3]; 3 μM OG-PTX, FTC removed, three successive values, FIG. 15a dashed line
  fold-increase in OG-PTX accumulation after removing inhibitor: 2.7±0.2 fold and 1.65±0.2 fold and 1.4±0.2 fold
22Rv1 cells [3]; FTC, followed by CsA, then FTC+CsA on the same cell, FIG. 15c
  fold-increase in OG-PTX accumulation, average of 6 individual cell experiments: 2.7±0.3 fold
22Rv1 cells [5]
  fold accumulation of D-luciferin: 2.0 fold

## COc1cccc2c1C(=O)c1c(O)c3c(c(O)c1C2=O)C[C@@](O)(C(C)=O)C[C@@H]3O[C@H]1C[C@H](N)[C@H](O)[C@H](C)O1 [DNR, Daunorubicin]
WBC [6]
  trypan blue staining of WBC: staining by trypan blue
22Rv1 cells [7]; single 22Rv1 cell after 35 μM DNR, DEP capture and xenon lamp excitation, FIG. 9c
  cell viability by trypan blue: viable
22Rv1 cells [7]; single 22Rv1 cells after 35 μM DNR or 3 μM OG-PTX in the presence of 40 μM FTC, FIG. 13
  trypan blue staining (cell membrane integrity): no cell staining
22Rv1 cells [1]; 3.5 μM DNR
  corrected signal of DNR (Fi): 100±37 cps
22Rv1 cells [1]; 7 μM DNR
  corrected signal of DNR (Fi): 290±39 cps
22Rv1 cells [1]; 14 μM DNR
  corrected signal of DNR (Fi): 260±41 cps
22Rv1 cells [1]; 35 μM DNR alone for 4000 s (negative control), three successive values, FIG. 14a dotted line
  fold-increase in DNR accumulation: 1.1±0.1 fold and 1.2±0.1 fold
22Rv1 cells [1]; 35 μM DNR only (negative control), FIG. 9a bottom curve
  fold-increase in fluorescence: 1.3±0.2 fold and 1.3 fold
22Rv1 cells [1]; 35 μM DNR
  corrected signal of DNR (Fi): 535±92 cps and 530±42 cps
22Rv1 cells [1]; 70 μM DNR
  corrected signal of DNR (Fi): 550±47 cps
22Rv1 cells [1]; 350 μM DNR
  corrected signal of DNR (Fi): 1280±50 cps
22Rv1 cells [1]; before adding FTC, FIG. 11a solid line
  fluorescence signal of the DNR: 630±77
22Rv1 cells [2]; 35 μM DNR only, FIG. 13a
  half time to reach the plateau: ~106 s
22Rv1 cells [2]; Step 1: 35 μM DNR only
  a1 (pre-exponential factor, normalized fluorescence plateau): 1.0±0.3
  b1: 0.010 ± 0.003 s⁻¹
WBC [8]
  DNR accumulation behaviour in WBC: continued to rise; also recorded: continuous increase in drug accumulation
22Rv1 cells [4]; single 22Rv1 cell isolated from WBCs, successive MDR inhibitor treatments not given, FIG. 12a
  fold-increase in fluorescent intensity (at 585 nm), DNR accumulation: 3.3±0.3 fold and 4.5±0.5 fold and 5.4±0.5 fold

## CN(C)C(=O)CCSC(SCCC(=O)O)c1cccc(/C=C/c2ccc3ccc(Cl)cc3n2)c1 (stereo not shown) [MK-571]
Leukemia cells
  intracellular levels of [3H]-azacytidine: increase

## COc1ccc(CCN(C)CCCC(C#N)(c2ccc(OC)c(OC)c2)C(C)C)cc1OC (stereo not shown) [verapamil]
Leukemia cells
  intracellular levels of [3H]-azacytidine: increase
